Assay results reported in ChEMBL document CHEMBL1151074, “RATIONAL DESIGN, SYNTHESIS, AND SERINE PROTEASE INHIBITORY ACTIVITY OF NOVEL P1-ARGININOYL HETEROCYCLES” (Bioorg Med Chem Lett, 1997).

Tests used:
Serine protease 1 = Serine protease 1 (Homo sapiens, UniProt P07477); experiment: Inhibitory concentration against trypsin.
Prothrombin = Prothrombin (Homo sapiens, UniProt P00734); experiment: Inhibitory concentration against thrombin(FIIa).
Plasminogen = Plasminogen (Rattus norvegicus, UniProt Q01177); experiment: Inhibitory concentration against plasmin.
[1] = Inhibitory concentration against factor Xa(FXa).

Plasminogen, sequence (Q01177 97-581 limits assumed): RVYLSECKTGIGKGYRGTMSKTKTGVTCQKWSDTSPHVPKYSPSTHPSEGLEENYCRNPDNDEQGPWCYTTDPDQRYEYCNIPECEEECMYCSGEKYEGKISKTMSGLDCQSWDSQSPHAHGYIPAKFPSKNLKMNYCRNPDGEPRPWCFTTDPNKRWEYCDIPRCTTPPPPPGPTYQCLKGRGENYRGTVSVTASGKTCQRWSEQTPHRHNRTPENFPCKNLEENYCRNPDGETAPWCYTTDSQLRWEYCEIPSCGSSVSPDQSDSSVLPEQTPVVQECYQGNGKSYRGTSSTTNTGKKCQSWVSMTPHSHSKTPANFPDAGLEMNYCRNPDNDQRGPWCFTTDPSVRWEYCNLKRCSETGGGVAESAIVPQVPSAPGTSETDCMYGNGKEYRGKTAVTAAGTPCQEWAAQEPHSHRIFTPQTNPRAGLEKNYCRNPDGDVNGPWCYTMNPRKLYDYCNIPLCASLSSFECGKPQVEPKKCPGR
Plasminogen, sequence (Q01177 582-812 limits assumed): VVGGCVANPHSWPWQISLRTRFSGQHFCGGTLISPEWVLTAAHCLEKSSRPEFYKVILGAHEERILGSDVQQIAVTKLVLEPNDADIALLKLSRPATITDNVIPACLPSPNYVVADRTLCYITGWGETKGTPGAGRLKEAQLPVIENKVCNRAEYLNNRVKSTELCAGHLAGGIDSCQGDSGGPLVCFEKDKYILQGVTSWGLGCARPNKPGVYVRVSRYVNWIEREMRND
Serine protease 1, sequence (P07477 whole entry): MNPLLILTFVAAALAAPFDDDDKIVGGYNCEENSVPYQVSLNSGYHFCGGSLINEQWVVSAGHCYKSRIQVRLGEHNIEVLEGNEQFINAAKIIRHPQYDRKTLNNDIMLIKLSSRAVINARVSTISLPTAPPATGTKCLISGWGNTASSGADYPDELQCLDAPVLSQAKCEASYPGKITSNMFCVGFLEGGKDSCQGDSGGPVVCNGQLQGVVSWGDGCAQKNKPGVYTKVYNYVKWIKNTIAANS

| Compound | IC50 (Serine protease 1) | IC50 (Prothrombin) | IC50 (Plasminogen) | IC50 [1] |
| --- | --- | --- | --- | --- |
| CC(C)(C)CC(=O)N[C@H](Cc1ccccc1)C(=O)N1CCC[C@H]1C(=O)N[C@@H](CCCN=C(N)N)C(=O)c1nc2ccccc2[nH]1 | 1010 nM | 92.1 nM | > 2500 nM | > 2500 nM |
| CC(=O)N[C@H](Cc1ccccc1)C(=O)N[C@@H](Cc1cccc2ccccc12)C(=O)N[C@@H](CCCN=C(N)N)C(=O)c1nc2ccccc2o1 | 6.4 nM | > 2500 nM | 14.2 nM | 29 nM |

Now from value to molecule:

| IC50 (Serine protease 1) | IC50 (Prothrombin) | IC50 (Plasminogen) | IC50 [1] | Compound |
| --- | --- | --- | --- | --- |
| 2.3 nM | 68 nM | 1320 nM | 110 nM | CC(C)(C)CC(=O)N[C@H](Cc1ccccc1)C(=O)N1CCC[C@H]1C(=O)N[C@@H](CCCNC(=N)N)C(=O)c1nc2ccccc2o1 |
| 156 nM | 284 nM | > 2500 nM | > 2500 nM | CC(=O)N[C@H](Cc1ccccc1)C(=O)N1CCC[C@H]1C(=O)N[C@H]1CCCN(C(=N)N)C1O (some centres undefined) |
| 25 nM | > 2500 nM | < 25 nM |  | CC(=O)N[C@H](Cc1ccccc1)C(=O)N[C@@H](Cc1cccc2ccccc12)C(=O)N[C@H]1CCCN(C(=N)N)C1O (some centres undefined) |
